{"source": "paper PMC7480105", "about": "“Wbox2: A clathrin terminal domain–derived peptide inhibitor of clathrin-mediated endocytosis” (The Journal of Cell Biology, 2020)", "key": {"[1]": {"tested_on": "TfnR uptake via CME in ARPE/HPV cells", "test": "TfnR uptake (in-cell ELISA) after peptide preincubation", "format": "cell-based", "settings": "60-min preincubation with peptide at 37°C, concentration curves, n = 4 replicates (Fig. 7 F), read-out: IC50 for inhibition of TfnR uptake", "method": "Peptides encoding the TAT sequence (YGRKKRRQRRR) followed by 10 amino acid sequences covering the four reported binding sites on the clathrin terminal domain (Fig. 7 A) were synthesized by GenScript (Piscataway, NJ) with >95% purity. Peptides were dissolved in dH2O and further diluted in PBS4+ (1× PBS buffer plus 0.2% BSA, 1 mM CaCl2, 1 mM MgCl2, and 5 mM D-glucose) or cell culture medium (for imaging) when applied to cells. Peptide solutions were stored at −20°C.\nInternalization of TfnR, CD44, CD59, and Biotin-Tfn was quantified by in-cell ELISA following established protocols ([Conner and Schmid, 2003]; [Srinivasan et al., 2018]). Cells were seeded in 96-well plates (Costar) at 60–70% confluence and grown overnight. Before the assay, cells were starved for 30 min in PBS4+ at 37°C or treated with peptides in PBS4+ at 37°C for the indicated times. After starvation, cells were moved to 4°C, and culture medium was replaced with cold PBS4+ containing 5 µg/ml HTR-D65 (anti-TfnR mAb; [Schmid and Smythe, 1991]), anti-human CD44 or anti-human CD59 (BD PharMingen) or 5 µg/ml Biotin-Tfn (Sigma-Aldrich). For single-round assays, the above reagents were kept with cells for 20 min at 4°C and then washed out before uptake assay. For multiround assays, the above reagents were kept with cells throughout the uptake process. In parallel, some cells were kept at 4°C for the measurement of surface-bound ligands and blank controls, and some were incubated in a 37°C water bath for the indicated times. Acid wash (0.2 M acetic acid and 0.2 M NaCl, pH 2.3) was used to remove surface-bound antibodies, followed by washing with cold PBS. All were fixed with 4% PFA (Electron Microscopy Sciences) in PBS for 30 min at 37°C. 0.1% Triton X-100 was added for 6.5 min to permeabilize cells, followed by addition of blocking buffer. HTR-D65–, CD44-, and CD59-treated cells were blocked with Q-PBS (PBS, 2% BSA, 0.1% lysine, and 0.01% saponin, pH 7.4), and Biotin-Tfn–treated cells were blocked with 2% casein. Surface-bound and internalized HTR-D65, CD44, and CD59 were probed with goat anti-mouse antibody conjugated with HRP (Sigma-Aldrich), and Biotin-Tfn was probed with Streptavidin-POD conjugate (Sigma-Aldrich). Color was developed using o-phenylenediamine dihydrochloride (OPD) solution (Sigma-Aldrich), and absorbance was read at 490 nm (Biotek Synergy H1 Hybrid Reader). Cell number variation among wells was accounted for by bicinchoninic acid assay reading at 562 nm."}, "SNX9": {"molecular_target": "SNX9 (Homo sapiens, UniProt Q9Y5X1)", "sequence (Q9Y5X1 whole entry, species assumed)": "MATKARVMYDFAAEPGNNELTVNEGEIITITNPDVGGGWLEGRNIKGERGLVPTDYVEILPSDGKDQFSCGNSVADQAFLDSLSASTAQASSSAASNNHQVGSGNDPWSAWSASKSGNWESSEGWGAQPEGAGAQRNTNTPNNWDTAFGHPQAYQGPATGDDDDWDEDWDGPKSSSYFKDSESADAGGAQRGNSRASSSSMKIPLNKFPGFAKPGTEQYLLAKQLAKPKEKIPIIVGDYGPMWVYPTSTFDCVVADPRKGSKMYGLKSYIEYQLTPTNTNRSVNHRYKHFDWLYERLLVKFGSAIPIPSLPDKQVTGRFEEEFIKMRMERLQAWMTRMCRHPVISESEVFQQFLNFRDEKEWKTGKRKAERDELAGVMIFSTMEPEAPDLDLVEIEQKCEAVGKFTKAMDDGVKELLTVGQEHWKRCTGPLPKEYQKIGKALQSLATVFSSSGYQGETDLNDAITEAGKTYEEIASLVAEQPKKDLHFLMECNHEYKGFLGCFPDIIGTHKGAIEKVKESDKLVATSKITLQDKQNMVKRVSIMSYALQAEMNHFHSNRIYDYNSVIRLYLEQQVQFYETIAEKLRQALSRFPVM", "test": "Isothermal titration calorimetry with SNX9", "format": "binding", "settings": "ITC, 20°C, 20 mM Hepes, 150 mM NaCl, 1 mM TCEP, pH 7.4; 1.8 mM Wbox2 injected into 50 µM SNX9; two nonsymmetric sites model; read-out: binding affinity KD1, first Wbox2 binding site on SNX9", "source_text": "GUSSI was further used to output the figures presented."}, "[2]": {"molecular_target": "hinge + appendage domain of the AP2 β2 subunit (β2-HAD) (UniProt P63010)", "sequence (P63010 2-937)": "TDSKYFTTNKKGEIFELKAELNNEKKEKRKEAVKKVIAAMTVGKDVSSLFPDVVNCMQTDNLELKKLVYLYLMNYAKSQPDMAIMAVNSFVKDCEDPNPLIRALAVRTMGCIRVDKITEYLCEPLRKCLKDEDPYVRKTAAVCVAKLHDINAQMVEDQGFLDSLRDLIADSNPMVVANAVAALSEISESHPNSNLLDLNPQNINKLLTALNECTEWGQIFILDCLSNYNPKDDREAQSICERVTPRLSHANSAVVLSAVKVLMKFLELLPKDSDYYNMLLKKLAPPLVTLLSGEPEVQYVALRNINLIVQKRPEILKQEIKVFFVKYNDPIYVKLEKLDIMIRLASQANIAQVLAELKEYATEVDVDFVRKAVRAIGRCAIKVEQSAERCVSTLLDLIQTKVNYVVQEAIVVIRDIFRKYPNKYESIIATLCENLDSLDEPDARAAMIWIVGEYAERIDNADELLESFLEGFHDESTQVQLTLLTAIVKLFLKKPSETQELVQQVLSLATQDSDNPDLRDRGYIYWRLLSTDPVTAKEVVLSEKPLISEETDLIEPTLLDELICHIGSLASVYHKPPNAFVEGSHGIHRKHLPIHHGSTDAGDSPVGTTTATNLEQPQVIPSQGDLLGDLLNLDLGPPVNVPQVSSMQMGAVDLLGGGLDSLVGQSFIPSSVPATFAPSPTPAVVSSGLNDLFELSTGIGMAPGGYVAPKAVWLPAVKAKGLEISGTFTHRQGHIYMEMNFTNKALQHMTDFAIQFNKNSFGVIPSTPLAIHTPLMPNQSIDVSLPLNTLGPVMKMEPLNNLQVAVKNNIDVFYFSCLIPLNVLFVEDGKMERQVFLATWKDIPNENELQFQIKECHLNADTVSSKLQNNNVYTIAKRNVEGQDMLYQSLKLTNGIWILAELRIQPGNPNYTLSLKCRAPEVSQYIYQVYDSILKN", "settings": "read-out: binding affinity KD to β2-HAD; ITC, 20°C, pH 7.4; 1.2 mM Wbox2 injected into 200 µM β2-HAD; A+B <–> AB model; binds a fraction of purified β2-HAD", "description": "Binding of TAT, Wbox2_mutant, and Wbox2 to SNX9 and β2-HAD was investigated by ITC using a MicroCal iTC200 (GE Healthcare Life Sciences). Measurements were performed at 20°C in reaction buffer: 20 mM Hepes, 150 mM NaCl, and 1 mM TCEP, pH 7.4. Protein and peptide concentrations were determined by absorbance at 280 and 205 nm, respectively. The peptides were injected from a syringe in 21 steps up to a molar excess over the protein concentration. Titration curves were executed with NITPIC and fitted with SEDPHAT."}, "cell viability": {"tested_on": "cell viability", "test": "Cell viability, Cell Counting Kit 8 (CCK-8)", "format": "cell-based", "settings": "for cytotoxicity IC50 relative to concentration needed to inhibit CME: cytotoxicity vs CME inhibition"}}, "note": "No end group written: not given here."}
{"sequence": "YGRKKRRQRRRGFSCQIIGIS [Wbox2]", "values": [{"measurement": "IC50", "setting": "[1]", "result": "~3", "unit": "µM"}, {"measurement": "Kd", "setting": "SNX9", "result": 4, "unit": "µM"}, {"measurement": "Kd", "setting": "[2]", "result": 37.5, "unit": "µM"}, {"measurement": "IC50 for cytotoxicity", "setting": "cell viability; CCK-8, n = 4 replicates (Fig. S5)", "result": "> 40", "unit": "µM"}, {"measurement": "effect on cell viability", "setting": "cell viability; concentrations ≤30 µM, CCK-8, n = 4 replicates (Fig. S5)", "result": "no effect"}, {"measurement": "cytotoxicity IC50 relative to concentration needed to inhibit CME", "setting": "cell viability", "result": 10, "unit": "fold"}, {"measurement": "cytotoxicity IC50 relative to concentration needed to inhibit CME", "setting": "cell viability; listed as CMEpi", "result": "~ 10 fold"}]}
